Structures are written as SMILES. ± gives the expanded uncertainty stated by the source.

This passage reports Normal melting temperature results from the NIST ThermoML archive (doi:10.1021/je8006088).

For the data set the following is noted: Crystal; visual observation.

Turning to `CC(C)=CCC[C@@H](C)[C@H]1CC[C@H]2[C@@H]3CC=C4C[C@@H](O)CC[C@]4(C)[C@H]3CC[C@]12C` [desmosterol], the Normal melting temperature came to 120.6 ± 1.1 °C.
